Experiment [1] has as its target Human HDAC1 (Homo sapiens (Human), UniProt Q13547). Nature of the experiment: HDAC1 biochemical fluorescent activity assay. To be noted: substrate Arg-His-Lys-Lys(Ac).
For experiment [2], the target named is Human HDAC11 (Homo sapiens (Human), UniProt Q96DB2). Description: HDAC11 biochemical fluorescent activity assay. To be noted: substrate Arg-His-Lys-Lys(Ac).
For experiment [3], the target named is Human HDAC2 (Homo sapiens (Human), UniProt Q92769). Description: HDAC2 biochemical fluorescent activity assay. The note with it: substrate Arg-His-Lys-Lys(Ac).
Experiment [4] concerns the target Human HDAC8 (Homo sapiens (Human), UniProt Q9BY41). Nature of the experiment: HDAC8 biochemical fluorescent activity assay. The note with it: substrate Arg-His-Lys(Ac)-Lys(Ac).
The target of experiment [5] is Recombinant human HDAC6 (Homo sapiens (Human), UniProt Q9UBN7). Description: HDAC6 biochemical fluorescent activity assay. To be noted: substrate Arg-His-Lys-Lys(Ac).
Experiment [6] addresses Human HDAC10 (Homo sapiens (Human), UniProt Q969S8). Description: HDAC10 biochemical fluorescent activity assay. The note with it: substrate Arg-His-Lys-Lys(Ac).
For experiment [7], the target named is Human HDAC5 (Homo sapiens (Human), UniProt Q9UQL6). Description: HDAC5 biochemical fluorescent activity assay.
Human HDAC5, sequence (Q9UQL6 whole entry): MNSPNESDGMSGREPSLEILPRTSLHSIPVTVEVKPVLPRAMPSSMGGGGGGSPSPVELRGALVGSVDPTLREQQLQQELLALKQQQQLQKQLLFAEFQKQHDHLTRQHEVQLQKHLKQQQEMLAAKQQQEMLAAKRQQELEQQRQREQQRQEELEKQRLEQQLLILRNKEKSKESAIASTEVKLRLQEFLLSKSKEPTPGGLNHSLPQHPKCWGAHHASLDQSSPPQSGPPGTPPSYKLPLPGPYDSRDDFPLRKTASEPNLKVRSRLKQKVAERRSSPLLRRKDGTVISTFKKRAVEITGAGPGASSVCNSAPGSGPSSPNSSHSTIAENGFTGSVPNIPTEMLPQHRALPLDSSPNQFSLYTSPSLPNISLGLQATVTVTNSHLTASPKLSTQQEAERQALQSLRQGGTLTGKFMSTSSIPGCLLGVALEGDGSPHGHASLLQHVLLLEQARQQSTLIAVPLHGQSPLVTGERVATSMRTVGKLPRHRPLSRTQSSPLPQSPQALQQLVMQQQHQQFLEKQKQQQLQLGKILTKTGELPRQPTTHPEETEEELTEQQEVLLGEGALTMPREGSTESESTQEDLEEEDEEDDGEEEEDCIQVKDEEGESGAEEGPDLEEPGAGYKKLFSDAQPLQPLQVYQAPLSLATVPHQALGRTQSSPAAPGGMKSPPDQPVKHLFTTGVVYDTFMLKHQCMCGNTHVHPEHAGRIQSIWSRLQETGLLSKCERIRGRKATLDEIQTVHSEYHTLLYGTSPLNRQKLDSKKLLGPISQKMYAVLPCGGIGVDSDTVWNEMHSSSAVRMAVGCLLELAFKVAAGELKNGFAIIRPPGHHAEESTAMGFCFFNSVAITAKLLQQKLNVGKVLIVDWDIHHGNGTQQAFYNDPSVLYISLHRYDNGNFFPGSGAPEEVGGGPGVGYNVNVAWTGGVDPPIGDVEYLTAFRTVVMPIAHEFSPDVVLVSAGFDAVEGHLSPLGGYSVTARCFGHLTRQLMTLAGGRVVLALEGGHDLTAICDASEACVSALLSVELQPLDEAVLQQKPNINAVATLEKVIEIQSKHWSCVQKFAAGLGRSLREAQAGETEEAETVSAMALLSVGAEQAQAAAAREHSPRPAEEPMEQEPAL

Human HDAC10, sequence (Q969S8 1-481): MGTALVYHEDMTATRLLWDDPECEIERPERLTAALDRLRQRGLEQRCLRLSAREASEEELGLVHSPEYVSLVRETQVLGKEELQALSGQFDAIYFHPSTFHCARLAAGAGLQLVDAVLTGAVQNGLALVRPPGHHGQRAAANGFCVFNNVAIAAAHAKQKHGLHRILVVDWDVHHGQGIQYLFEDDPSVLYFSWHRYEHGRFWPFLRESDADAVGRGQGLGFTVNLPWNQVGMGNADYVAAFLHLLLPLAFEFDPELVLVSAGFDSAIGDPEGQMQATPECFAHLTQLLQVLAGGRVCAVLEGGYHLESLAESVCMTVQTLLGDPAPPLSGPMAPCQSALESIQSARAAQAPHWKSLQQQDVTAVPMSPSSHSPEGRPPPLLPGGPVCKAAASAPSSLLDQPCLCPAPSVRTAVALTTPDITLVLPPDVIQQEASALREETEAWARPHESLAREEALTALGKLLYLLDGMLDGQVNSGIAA
Human HDAC2, sequence (Q92769 whole entry): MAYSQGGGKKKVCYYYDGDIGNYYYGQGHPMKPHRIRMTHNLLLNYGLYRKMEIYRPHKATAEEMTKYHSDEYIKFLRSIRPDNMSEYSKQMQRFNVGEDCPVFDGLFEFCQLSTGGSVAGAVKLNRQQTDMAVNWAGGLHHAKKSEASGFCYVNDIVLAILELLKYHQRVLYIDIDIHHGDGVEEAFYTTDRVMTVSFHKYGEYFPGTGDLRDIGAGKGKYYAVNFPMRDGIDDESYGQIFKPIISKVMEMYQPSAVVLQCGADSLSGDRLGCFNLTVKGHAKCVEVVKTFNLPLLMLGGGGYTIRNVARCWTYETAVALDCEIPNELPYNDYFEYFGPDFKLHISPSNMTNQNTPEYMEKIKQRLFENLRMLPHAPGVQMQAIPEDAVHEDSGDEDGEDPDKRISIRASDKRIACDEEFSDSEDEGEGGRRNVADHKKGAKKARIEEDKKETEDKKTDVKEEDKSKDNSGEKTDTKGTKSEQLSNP
Recombinant human HDAC6, sequence (Q9UBN7 whole entry): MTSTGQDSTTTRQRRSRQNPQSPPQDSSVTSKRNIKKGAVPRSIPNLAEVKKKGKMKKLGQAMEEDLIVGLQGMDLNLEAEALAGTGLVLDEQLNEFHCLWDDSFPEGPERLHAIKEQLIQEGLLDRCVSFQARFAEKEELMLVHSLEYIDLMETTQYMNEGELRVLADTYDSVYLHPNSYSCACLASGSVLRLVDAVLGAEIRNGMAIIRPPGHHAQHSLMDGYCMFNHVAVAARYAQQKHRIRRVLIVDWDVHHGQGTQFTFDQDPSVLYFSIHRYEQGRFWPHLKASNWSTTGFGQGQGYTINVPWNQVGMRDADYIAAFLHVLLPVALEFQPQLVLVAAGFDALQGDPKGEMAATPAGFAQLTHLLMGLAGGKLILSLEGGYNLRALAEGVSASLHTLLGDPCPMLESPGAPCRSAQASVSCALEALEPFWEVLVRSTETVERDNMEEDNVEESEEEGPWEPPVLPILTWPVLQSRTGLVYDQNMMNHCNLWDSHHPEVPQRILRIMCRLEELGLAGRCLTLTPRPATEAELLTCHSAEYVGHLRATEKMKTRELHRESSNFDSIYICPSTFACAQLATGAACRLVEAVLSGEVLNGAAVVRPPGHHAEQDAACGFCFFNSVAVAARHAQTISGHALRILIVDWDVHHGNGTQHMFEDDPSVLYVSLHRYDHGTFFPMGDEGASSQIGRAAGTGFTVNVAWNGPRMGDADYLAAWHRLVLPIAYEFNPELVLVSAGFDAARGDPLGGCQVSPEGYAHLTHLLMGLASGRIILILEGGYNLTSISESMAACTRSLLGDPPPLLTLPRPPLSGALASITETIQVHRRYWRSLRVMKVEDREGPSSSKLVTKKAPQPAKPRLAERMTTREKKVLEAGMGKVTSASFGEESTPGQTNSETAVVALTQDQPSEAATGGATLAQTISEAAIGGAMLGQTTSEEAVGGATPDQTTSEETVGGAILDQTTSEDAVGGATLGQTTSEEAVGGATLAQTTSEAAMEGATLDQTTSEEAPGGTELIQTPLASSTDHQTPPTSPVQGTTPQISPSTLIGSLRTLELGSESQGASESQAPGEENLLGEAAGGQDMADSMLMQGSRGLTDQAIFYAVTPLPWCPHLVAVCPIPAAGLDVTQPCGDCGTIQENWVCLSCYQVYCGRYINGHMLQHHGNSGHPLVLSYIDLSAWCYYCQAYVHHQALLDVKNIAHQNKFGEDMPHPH
Human HDAC11, sequence (Q96DB2 whole entry): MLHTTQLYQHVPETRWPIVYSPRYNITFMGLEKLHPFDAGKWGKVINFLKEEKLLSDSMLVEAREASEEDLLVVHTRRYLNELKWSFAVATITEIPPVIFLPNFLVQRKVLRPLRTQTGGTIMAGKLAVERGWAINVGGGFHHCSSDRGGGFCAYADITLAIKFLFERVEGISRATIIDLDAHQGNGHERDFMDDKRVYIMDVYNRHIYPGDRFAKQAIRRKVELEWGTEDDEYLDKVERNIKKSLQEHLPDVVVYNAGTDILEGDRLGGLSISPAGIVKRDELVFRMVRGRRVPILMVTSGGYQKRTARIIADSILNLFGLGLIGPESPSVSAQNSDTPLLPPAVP
Human HDAC8, sequence (Q9BY41 whole entry): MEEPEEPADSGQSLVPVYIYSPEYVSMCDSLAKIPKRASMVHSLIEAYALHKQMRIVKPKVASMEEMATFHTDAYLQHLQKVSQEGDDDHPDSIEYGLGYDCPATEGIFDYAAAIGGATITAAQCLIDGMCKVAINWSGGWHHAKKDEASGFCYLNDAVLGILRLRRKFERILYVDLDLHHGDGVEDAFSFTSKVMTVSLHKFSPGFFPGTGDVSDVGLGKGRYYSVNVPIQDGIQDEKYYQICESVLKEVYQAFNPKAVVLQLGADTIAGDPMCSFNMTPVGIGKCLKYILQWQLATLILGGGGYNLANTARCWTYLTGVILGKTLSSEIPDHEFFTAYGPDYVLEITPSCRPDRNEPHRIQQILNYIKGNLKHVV
Human HDAC1, sequence (Q13547 whole entry): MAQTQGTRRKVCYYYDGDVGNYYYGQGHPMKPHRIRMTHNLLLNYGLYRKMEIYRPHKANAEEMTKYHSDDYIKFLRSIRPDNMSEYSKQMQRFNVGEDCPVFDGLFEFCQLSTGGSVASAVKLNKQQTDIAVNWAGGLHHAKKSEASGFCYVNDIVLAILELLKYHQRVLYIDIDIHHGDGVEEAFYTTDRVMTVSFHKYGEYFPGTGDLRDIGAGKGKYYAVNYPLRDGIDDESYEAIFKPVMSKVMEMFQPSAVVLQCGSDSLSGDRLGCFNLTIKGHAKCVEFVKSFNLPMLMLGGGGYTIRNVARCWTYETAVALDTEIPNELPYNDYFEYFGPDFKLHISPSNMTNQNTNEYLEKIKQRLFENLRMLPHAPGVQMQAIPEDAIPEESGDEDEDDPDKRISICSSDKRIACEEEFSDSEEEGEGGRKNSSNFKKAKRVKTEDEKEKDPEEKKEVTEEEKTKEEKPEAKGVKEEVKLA

The IC50 is the concentration that inhibits the measured activity by half. As for `O=C(NO)c1ccc(Cn2sc3ncccc3c2=O)cc1` [RBC-3001-A, N-hydroxy-4-((3-oxoisothiazolo[5,4-b]pyridin-2(3H)-yl)methyl)benzamide], the IC50 is 175 nM in experiment [1]; 2840 nM in experiment [2]; 5.4 µM in experiment [3]; 27.1 nM in experiment [4]; 0.958 nM in experiment [5]; 4.26 µM in experiment [6]. The same compound registered an IC50 in experiment [7] of 508 nM.
